In patent US20260193293A1, “PEPTIDES CAPABLE OF INHIBITING PROTEIN-PROTEIN INTERACTIONS AT GABAB1A SUBUNIT AND USES THEREOF” (UNIVERSITY OF COPENHAGEN, priority 2022, published 2026):
Like-named read-outs stand apart in the source and are kept apart here. Residues, ends and D or L forms follow the SMILES beside them.

Molecular target: Sushi domains (SD1/2) protein
Experiment: Fluorescence polarization (FP) competition assay with AJAP-1probe, calculated Ki
Type: binding
Conditions: read-out: Ki (nM) mean ± SEM
Summary of the method: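 Competition against 25 nM TAMRA-labelled peptide probe binding SD1/2, in PBS pH 7.4 with 1% BSA at rt, read at 530/580 nm. IC50 from sigmoidal dose-response fits, at least triplicate; Ki calculated from IC50 using probe Kd from saturation binding.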

[1] = Table 8, Ala-, D-amino acids and N-methylation scans of AJAP-1WT
[2] = Table 11, deep mutational scanning validation variants of AJAP-1WT
[3] = Table 13, peptides for affinity maturation

| Ki [2] [nM] | Compound | also measured |
| --- | --- | --- |
| – | CC[C@H](C)[C@H](NC(=O)[C@H](Cc1ccccc1)NC(=O)[C@H](CCC(=O)O)NC(=O)[C@@H](NC(=O)[C@H](CCC(=O)O)NC(C)=O)[C@@H](C)O)C(=O)N[C@@H](C)C(=O)N[C@@H](Cc1c[nH]c2ccccc12)C(=O)NCC(=O)N[C@@H](C)C(=O)N[C@H](C(=O)NCC(=O)N[C@@H](CC(=O)O)C(=O)N[C@@H](CCC(=O)O)C(=O)N[C@@H](CC(=O)O)C(N)=O)[C@@H](C)O [ETEFIAWGATGDED] (Ac-ETEFIAWGATGDED-NH2) | Ki [1]: 291 ± 6 nM |
| – | CC[C@H](C)[C@H](NC(=O)[C@H](Cc1ccccc1)NC(=O)[C@H](CCC(=O)O)NC(=O)[C@@H](NC(=O)[C@H](CCC(=O)O)NC(C)=O)[C@@H](C)O)C(=O)N[C@@H](C)C(=O)N[C@@H](Cc1c[nH]c2ccccc12)C(=O)NCC(=O)N1CCC[C@H]1C(=O)N[C@@H](C)C(=O)NCC(=O)N[C@@H](CC(=O)O)C(=O)N[C@@H](CCC(=O)O)C(=O)N[C@@H](CC(=O)O)C(N)=O [ETEFIAWGPAGDED] (Ac-ETEFIAWGPAGDED-NH2) | Ki [1]: 89 ± 2 nM |
| 40 ± 1 | CC[C@H](C)[C@H](NC(=O)[C@H](Cc1ccccc1)NC(=O)[C@H](CCC(=O)O)NC(=O)[C@@H](NC(=O)[C@H](CCC(=O)O)NC(C)=O)[C@@H](C)O)C(=O)N[C@@H](C)C(=O)N[C@@H](Cc1c[nH]c2ccccc12)C(=O)NCC(=O)N1CCC[C@H]1C(=O)N[C@@H](Cc1ccccc1)C(=O)NCC(=O)N[C@@H](CC(=O)O)C(=O)N[C@@H](CCC(=O)O)C(=O)N[C@@H](CC(=O)O)C(N)=O [ETEFIAWGPFGDED] (Ac-ETEFIAWGPFGDED-NH2) | – |
| 38 ± 1 | CC[C@H](C)[C@H](NC(=O)[C@H](Cc1ccccc1)NC(=O)[C@H](CCC(=O)O)NC(=O)[C@@H](NC(=O)[C@H](CCC(=O)O)NC(C)=O)[C@@H](C)O)C(=O)N[C@@H](C)C(=O)N[C@@H](Cc1c[nH]c2ccccc12)C(=O)NCC(=O)N1CCC[C@H]1C(=O)N[C@@H](Cc1c[nH]cn1)C(=O)NCC(=O)N[C@@H](CC(=O)O)C(=O)N[C@@H](CCC(=O)O)C(=O)N[C@@H](CC(=O)O)C(N)=O [ETEFIAWGPHGDED] (Ac-ETEFIAWGPHGDED-NH2) | – |
| – | CC[C@H](C)[C@H](NC(=O)[C@H](Cc1ccccc1)NC(=O)[C@H](CCC(=O)O)NC(=O)[C@@H](NC(=O)[C@H](CCC(=O)O)NC(C)=O)[C@@H](C)O)C(=O)N[C@@H](C)C(=O)N[C@@H](Cc1c[nH]c2ccccc12)C(=O)NCC(=O)N1CCC[C@H]1C(=O)N[C@H](C(=O)NCC(=O)N[C@@H](CC(=O)O)C(=O)N[C@@H](CCC(=O)O)C(=O)N[C@@H](CC(=O)O)C(N)=O)[C@@H](C)CC [ETEFIAWGPIGDED] (Ac-ETEFIAWGPIGDED-NH2) | Ki [1]: 48 ± 2 nM |
| 32 ± 1 | CC[C@H](C)[C@H](NC(=O)[C@H](Cc1ccccc1)NC(=O)[C@H](CCC(=O)O)NC(=O)[C@@H](NC(=O)[C@H](CCC(=O)O)NC(C)=O)[C@@H](C)O)C(=O)N[C@@H](C)C(=O)N[C@@H](Cc1c[nH]c2ccccc12)C(=O)NCC(=O)N1CCC[C@H]1C(=O)N[C@@H](CO)C(=O)NCC(=O)N[C@@H](CC(=O)O)C(=O)N[C@@H](CCC(=O)O)C(=O)N[C@@H](CC(=O)O)C(N)=O [ETEFIAWGPSGDED] (Ac-ETEFIAWGPSGDED-NH2) | – |
| 46 ± 2 | CC[C@H](C)[C@H](NC(=O)[C@H](Cc1ccccc1)NC(=O)[C@H](CCC(=O)O)NC(=O)[C@@H](NC(=O)[C@H](CCC(=O)O)NC(C)=O)[C@@H](C)O)C(=O)N[C@@H](C)C(=O)N[C@@H](Cc1c[nH]c2ccccc12)C(=O)NCC(=O)N1CCC[C@H]1C(=O)N[C@H](C(=O)N[C@@H](Cc1ccccc1)C(=O)N[C@@H](CC(=O)O)C(=O)N[C@@H](CCC(=O)O)C(=O)N[C@@H](CC(=O)O)C(N)=O)[C@@H](C)O [ETEFIAWGPTFDED] | – |
| – | CC[C@H](C)[C@H](NC(=O)[C@H](Cc1ccccc1)NC(=O)[C@H](CCC(=O)O)NC(=O)[C@@H](NC(=O)[C@H](CCC(=O)O)NC(C)=O)[C@@H](C)O)C(=O)N[C@@H](C)C(=O)N[C@@H](Cc1c[nH]c2ccccc12)C(=O)NCC(=O)N1CCC[C@H]1C(=O)N[C@H](C(=O)NCC(=O)N[C@@H](C)C(=O)N[C@@H](CCC(=O)O)C(=O)N[C@@H](CC(=O)O)C(N)=O)[C@@H](C)O [ETEFIAWGPTGAED] (Ac-ETEFIAWGPTGAED-NH2) | Ki [1]: 50 ± 1 nM |
| 60 ± 4 | CC[C@H](C)[C@H](NC(=O)[C@H](Cc1ccccc1)NC(=O)[C@H](CCC(=O)O)NC(=O)[C@@H](NC(=O)[C@H](CCC(=O)O)NC(C)=O)[C@@H](C)O)C(=O)N[C@@H](C)C(=O)N[C@@H](Cc1c[nH]c2ccccc12)C(=O)NCC(=O)N1CCC[C@H]1C(=O)N[C@H](C(=O)NCC(=O)N[C@@H](Cc1c[nH]cn1)C(=O)N[C@@H](CCC(=O)O)C(=O)N[C@@H](CC(=O)O)C(N)=O)[C@@H](C)O [ETEFIAWGPTGHED] (Ac-ETEFIAWGPTGHED-NH2) | – |
| 41 ± 1 | CC[C@H](C)[C@H](NC(=O)[C@H](Cc1ccccc1)NC(=O)[C@H](CCC(=O)O)NC(=O)[C@@H](NC(=O)[C@H](CCC(=O)O)NC(C)=O)[C@@H](C)O)C(=O)N[C@@H](C)C(=O)N[C@@H](Cc1c[nH]c2ccccc12)C(=O)NCC(=O)N1CCC[C@H]1C(=O)N[C@H](C(=O)NCC(=O)N[C@@H](Cc1ccc(O)cc1)C(=O)N[C@@H](CCC(=O)O)C(=O)N[C@@H](CC(=O)O)C(N)=O)[C@@H](C)O [ETEFIAWGPTGYED] (Ac-ETEFIAWGPTGYED-NH2) | – |
| 30 ± 1 | CC[C@H](C)[C@H](NC(=O)[C@H](Cc1ccccc1)NC(=O)[C@H](CCC(=O)O)NC(=O)[C@@H](NC(=O)[C@H](CCC(=O)O)NC(C)=O)[C@@H](C)O)C(=O)N[C@@H](C)C(=O)N[C@@H](Cc1c[nH]c2ccccc12)C(=O)NCC(=O)N1CCC[C@H]1C(=O)N[C@H](C(=O)N[C@@H](Cc1c[nH]cn1)C(=O)N[C@@H](CC(=O)O)C(=O)N[C@@H](CCC(=O)O)C(=O)N[C@@H](CC(=O)O)C(N)=O)[C@@H](C)O [ETEFIAWGPTHDED] (Ac-ETEFIAWGPTHDED-NH2) | – |
| 32 ± 1 | CC[C@H](C)[C@H](NC(=O)[C@H](Cc1ccccc1)NC(=O)[C@H](CCC(=O)O)NC(=O)[C@@H](NC(=O)[C@H](CCC(=O)O)NC(C)=O)[C@@H](C)O)C(=O)N[C@@H](C)C(=O)N[C@@H](Cc1c[nH]c2ccccc12)C(=O)NCC(=O)N1CCC[C@H]1C(=O)N[C@H](C(=O)N[C@@H](CCCNC(=N)N)C(=O)N[C@@H](CC(=O)O)C(=O)N[C@@H](CCC(=O)O)C(=O)N[C@@H](CC(=O)O)C(N)=O)[C@@H](C)O [ETEFIAWGPTRDED] (Ac-ETEFIAWGPTRDED-NH2) | – |
| – | CC[C@H](C)[C@H](NC(=O)[C@H](Cc1ccccc1)NC(=O)[C@H](CCC(=O)O)NC(=O)[C@@H](NC(=O)[C@H](CCC(=O)O)NC(C)=O)[C@@H](C)O)C(=O)N[C@@H](C)C(=O)N[C@@H](Cc1c[nH]c2ccccc12)C(=O)NCC(=O)N1CCC[C@H]1C(=O)N[C@H](C(=O)N[C@H](C(=O)N[C@@H](CO)C(=O)N[C@@H](CCCNC(=N)N)C(=O)N[C@@H](CCC(=O)O)C(=O)N[C@@H](CC(=O)O)C(N)=O)C(C)C)[C@@H](C)O [ETEFIAWGPTVSRED] (Ac-ETEFIAWGPTVSRED-NH2) | Ki [3]: 148 ± 6 nM |
| 240 ± 7 | CC[C@H](C)[C@H](NC(=O)[C@H](Cc1ccccc1)NC(=O)[C@H](CCC(=O)O)NC(=O)[C@@H](NC(=O)[C@H](CCC(=O)O)NC(C)=O)[C@@H](C)O)C(=O)N[C@@H](C)C(=O)N[C@@H](Cc1c[nH]c2ccccc12)C(=O)N[C@@H](Cc1c[nH]cn1)C(=O)N1CCC[C@H]1C(=O)N[C@H](C(=O)NCC(=O)N[C@@H](CC(=O)O)C(=O)N[C@@H](CCC(=O)O)C(=O)N[C@@H](CC(=O)O)C(N)=O)[C@@H](C)O [ETEFIAWHPTGDED] (Ac-ETEFIAWHPTGDED-NH2) | – |
| – | CC[C@H](C)[C@H](NC(=O)[C@H](Cc1ccccc1)NC(=O)[C@H](CCC(=O)O)NC(=O)[C@@H](NC(=O)[C@H](CCC(=O)O)NC(C)=O)[C@@H](C)O)C(=O)N[C@@H](C)C(=O)N[C@@H](Cc1c[nH]c2ccccc12)C(=O)N[C@@H](Cc1ccc(O)cc1)C(=O)NCC(=O)N1CCC[C@H]1C(=O)N[C@H](C(=O)NCC(=O)N[C@@H](CC(=O)O)C(=O)N[C@@H](CCC(=O)O)C(=O)N[C@@H](CC(=O)O)C(N)=O)[C@@H](C)O [ETEFIAWYGPTGDED] (Ac-ETEFIAWYGPTGDED-NH2) | Ki [3]: 195 ± 7 nM |
| 199 ± 10 | CC[C@H](C)[C@H](NC(=O)[C@H](Cc1ccccc1)NC(=O)[C@H](CCC(=O)O)NC(=O)[C@@H](NC(=O)[C@H](CCC(=O)O)NC(C)=O)[C@@H](C)O)C(=O)N[C@@H](C)C(=O)N[C@@H](Cc1c[nH]c2ccccc12)C(=O)N[C@@H](Cc1ccc(O)cc1)C(=O)N1CCC[C@H]1C(=O)N[C@H](C(=O)NCC(=O)N[C@@H](CC(=O)O)C(=O)N[C@@H](CCC(=O)O)C(=O)N[C@@H](CC(=O)O)C(N)=O)[C@@H](C)O [ETEFIAWYPTGDED] (Ac-ETEFIAWYPTGDED-NH2) | Ki [3]: 199 ± 10 nM |
| 24 ± 1 | CC[C@H](C)[C@H](NC(=O)[C@H](Cc1ccccc1)NC(=O)[C@H](CCC(=O)O)NC(=O)[C@@H](NC(=O)[C@H](CCC(=O)O)NC(C)=O)[C@@H](C)O)C(=O)N[C@@H](Cc1c[nH]cn1)C(=O)N[C@@H](Cc1c[nH]c2ccccc12)C(=O)NCC(=O)N1CCC[C@H]1C(=O)N[C@H](C(=O)NCC(=O)N[C@@H](CC(=O)O)C(=O)N[C@@H](CCC(=O)O)C(=O)N[C@@H](CC(=O)O)C(N)=O)[C@@H](C)O [ETEFIHWGPTGDED] (Ac-ETEFIHWGPTGDED-NH2) | – |
| – | CC[C@H](C)[C@H](NC(=O)[C@H](Cc1ccccc1)NC(=O)[C@H](CCC(=O)O)NC(=O)[C@@H](NC(=O)[C@H](CCC(=O)O)NC(C)=O)[C@@H](C)O)C(=O)N1CCC[C@H]1C(=O)N[C@@H](Cc1c[nH]c2ccccc12)C(=O)NCC(=O)N1CCC[C@H]1C(=O)N[C@H](C(=O)NCC(=O)N[C@@H](CC(=O)O)C(=O)N[C@@H](CCC(=O)O)C(=O)N[C@@H](CC(=O)O)C(N)=O)[C@@H](C)O [ETEFIPWGPTGDED] (Ac-ETEFIPWGPTGDED-NH2) | Ki (Table 11, cells printed in μM): > 6250 nM |
| 30 ± 1 | CC[C@H](C)[C@H](NC(=O)[C@H](Cc1ccccc1)NC(=O)[C@H](CCC(=O)O)NC(=O)[C@@H](NC(=O)[C@H](CCC(=O)O)NC(C)=O)[C@@H](C)O)C(=O)N[C@H](C(=O)N[C@@H](Cc1c[nH]c2ccccc12)C(=O)NCC(=O)N1CCC[C@H]1C(=O)N[C@H](C(=O)NCC(=O)N[C@@H](CC(=O)O)C(=O)N[C@@H](CCC(=O)O)C(=O)N[C@@H](CC(=O)O)C(N)=O)[C@@H](C)O)C(C)C [ETEFIVWGPTGDED] (Ac-ETEFIVWGPTGDED-NH2) | – |
